ChEMBL document CHEMBL5050845, “Enhancers of neurolysin activity” (2020)
The source made the active and inactive calls. The calls are words filed in the database; no cut-off is given here. Peptide text beside a SMILES is read from it. * marks the point of attachment. NHPhenethyl = c1ccc(CCN*)cc1; Boc = CC(C)(C)OC(=O)*

How the values were obtained:
Rattus norvegicus [1] = species on record: Rattus norvegicus; test: Positive allosteric modulation of recombinant N-terminal poly-His tagged rat neurolysin using Mca-Pro-Leu- Gly-Pro-D-Lys(DNP)-OH as substrate assessed as Amax and measured by fluorescence based assay relative to control
Rattus norvegicus [2] = species on record: Rattus norvegicus; test: Positive allosteric modulation of recombinant N-terminal poly-His tagged rat neurolysin using Mca-Pro-Leu- Gly-Pro-D-Lys(DNP)-OH as substrate and measured by fluorescence based assay
[3] = Inhibition of recombinant N-terminal poly-His tagged rat neurolysin using Mca-Pro-Leu- Gly-Pro-D-Lys(DNP)-OH as substrate in presence of 100 uM NSC 374121 and measured by fluorescence based assay relative to control
[4] = Inhibition of recombinant N-terminal poly-His tagged rat neurolysin using Mca-Pro-Leu- Gly-Pro-D-Lys(DNP)-OH as substrate in presence of 100 uM NSC 523374 and measured by fluorescence based assay relative to control
Rattus norvegicus [5] = species on record: Rattus norvegicus; test: Positive allosteric modulation of catalytic activity of recombinant N-terminal poly-His tagged rat neurolysin using Mca-Pro-Leu- Gly-Pro-D-Lys(DNP)-OH as substrate and measured by fluorescence based assay relative to control; conditions: filed as positive allosteric modulator
Rattus norvegicus [6] = species on record: Rattus norvegicus; test: Positive allosteric modulation of catalytic activity of recombinant N-terminal poly-His tagged rat neurolysin using Mca-Pro-Leu- Gly-Pro-D-Lys(DNP)-OH as substrate in presence of 1 uM dynoprhin A (1 to 13) and measured by fluorescence based assay relative to control; conditions: filed as positive allosteric modulator
Rattus norvegicus [7] = species on record: Rattus norvegicus; test: Positive allosteric modulation of catalytic activity of recombinant N-terminal poly-His tagged rat neurolysin at 40 uM assessed as Vmax as fluorescent unit/ng protein and measured fluorescence assay; conditions: filed as positive allosteric modulator
Rattus norvegicus [8] = species on record: Rattus norvegicus; test: Positive allosteric modulation of catalytic activity of recombinant N-terminal poly-His tagged rat neurolysin at 100 uM assessed as Vmax as fluorescent unit/ng protein measured fluorescence assay; conditions: filed as positive allosteric modulator
Rattus norvegicus [9] = species on record: Rattus norvegicus; test: Positive allosteric modulation of catalytic activity of recombinant N-terminal poly-His tagged rat neurolysin at 40 uM assessed as Km measured fluorescence assay; conditions: filed as positive allosteric modulator
Rattus norvegicus [10] = species on record: Rattus norvegicus; test: Positive allosteric modulation of catalytic activity of recombinant N-terminal poly-His tagged rat neurolysin at 100 uM assessed as Km measured fluorescence assay; conditions: filed as positive allosteric modulator
Homo sapiens [11] = species on record: Homo sapiens; test: Positive allosteric modulation of recombinant N-terminal Met and His-tagged human neurolysin using Mca-Pro-Leu- Gly-Pro-D-Lys(DNP)-OH as substrate and measured by fluorescence based assay relative to control; conditions: filed as positive allosteric modulator
Mus musculus = species on record: Mus musculus; test: Positive allosteric modulation of neurolysin in mouse brain using Mca-Pro-Leu- Gly-Pro-D-Lys(DNP)-OH as substrate and measured by fluorescence based assay relative to control; format: tissue-based; conditions: filed as positive allosteric modulator
Homo sapiens [12] = species on record: Homo sapiens; test: Inhibition of recombinant N-terminal Met and His-tagged human Thimet oligopeptidase at 300 uM using Mca-Pro-Leu-Gly-Pro-D-Lys(DNP)-OH as substrate and measured by fluorescence based assay relative to control
[13] = target: Angiotensin-converting enzyme 2 (Homo sapiens) (UniProt Q9BYF1); test: Inhibition of recombinant N-terminal Met and His-tagged human ACE2 at 300 uM using Mca-Ala-Pro-Lys-(Dnp)-OH as substrate and measured by fluorescence based assay relative to control
Sequence of Angiotensin-converting enzyme 2 (Homo sapiens) (Q9BYF1 18-805 limits assumed): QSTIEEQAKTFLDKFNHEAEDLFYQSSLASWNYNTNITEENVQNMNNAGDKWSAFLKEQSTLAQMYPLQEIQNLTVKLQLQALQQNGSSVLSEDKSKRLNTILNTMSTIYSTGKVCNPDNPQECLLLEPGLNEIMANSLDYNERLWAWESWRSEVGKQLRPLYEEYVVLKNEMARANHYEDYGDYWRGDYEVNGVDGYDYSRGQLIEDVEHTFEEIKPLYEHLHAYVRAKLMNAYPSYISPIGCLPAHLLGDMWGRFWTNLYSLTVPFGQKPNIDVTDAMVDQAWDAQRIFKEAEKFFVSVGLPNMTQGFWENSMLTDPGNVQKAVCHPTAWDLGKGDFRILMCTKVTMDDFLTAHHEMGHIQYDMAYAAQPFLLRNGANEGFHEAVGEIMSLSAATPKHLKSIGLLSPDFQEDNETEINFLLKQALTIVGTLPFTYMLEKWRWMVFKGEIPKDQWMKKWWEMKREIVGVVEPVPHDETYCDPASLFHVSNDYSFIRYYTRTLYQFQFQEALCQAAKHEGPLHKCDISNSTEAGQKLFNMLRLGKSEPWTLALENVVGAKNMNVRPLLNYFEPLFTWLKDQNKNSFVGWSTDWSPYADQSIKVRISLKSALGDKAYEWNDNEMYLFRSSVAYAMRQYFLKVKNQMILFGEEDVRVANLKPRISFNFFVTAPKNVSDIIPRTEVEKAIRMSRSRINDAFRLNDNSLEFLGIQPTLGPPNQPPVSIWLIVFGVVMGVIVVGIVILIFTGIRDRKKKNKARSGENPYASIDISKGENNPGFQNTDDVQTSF

[14] = target: Angiotensin-converting enzyme (Homo sapiens) (UniProt P12821); test: Inhibition of recombinant C-terminal 10His-tagged human ACE at 300 uM using Mca-Arg-Pro-Pro-Gly-Phe-Ser-Ala-Phe-Lys(Dnp)-OH as substrate and measured by fluorescence based assay relative to control
Sequence of Angiotensin-converting enzyme (Homo sapiens) (P12821 whole entry): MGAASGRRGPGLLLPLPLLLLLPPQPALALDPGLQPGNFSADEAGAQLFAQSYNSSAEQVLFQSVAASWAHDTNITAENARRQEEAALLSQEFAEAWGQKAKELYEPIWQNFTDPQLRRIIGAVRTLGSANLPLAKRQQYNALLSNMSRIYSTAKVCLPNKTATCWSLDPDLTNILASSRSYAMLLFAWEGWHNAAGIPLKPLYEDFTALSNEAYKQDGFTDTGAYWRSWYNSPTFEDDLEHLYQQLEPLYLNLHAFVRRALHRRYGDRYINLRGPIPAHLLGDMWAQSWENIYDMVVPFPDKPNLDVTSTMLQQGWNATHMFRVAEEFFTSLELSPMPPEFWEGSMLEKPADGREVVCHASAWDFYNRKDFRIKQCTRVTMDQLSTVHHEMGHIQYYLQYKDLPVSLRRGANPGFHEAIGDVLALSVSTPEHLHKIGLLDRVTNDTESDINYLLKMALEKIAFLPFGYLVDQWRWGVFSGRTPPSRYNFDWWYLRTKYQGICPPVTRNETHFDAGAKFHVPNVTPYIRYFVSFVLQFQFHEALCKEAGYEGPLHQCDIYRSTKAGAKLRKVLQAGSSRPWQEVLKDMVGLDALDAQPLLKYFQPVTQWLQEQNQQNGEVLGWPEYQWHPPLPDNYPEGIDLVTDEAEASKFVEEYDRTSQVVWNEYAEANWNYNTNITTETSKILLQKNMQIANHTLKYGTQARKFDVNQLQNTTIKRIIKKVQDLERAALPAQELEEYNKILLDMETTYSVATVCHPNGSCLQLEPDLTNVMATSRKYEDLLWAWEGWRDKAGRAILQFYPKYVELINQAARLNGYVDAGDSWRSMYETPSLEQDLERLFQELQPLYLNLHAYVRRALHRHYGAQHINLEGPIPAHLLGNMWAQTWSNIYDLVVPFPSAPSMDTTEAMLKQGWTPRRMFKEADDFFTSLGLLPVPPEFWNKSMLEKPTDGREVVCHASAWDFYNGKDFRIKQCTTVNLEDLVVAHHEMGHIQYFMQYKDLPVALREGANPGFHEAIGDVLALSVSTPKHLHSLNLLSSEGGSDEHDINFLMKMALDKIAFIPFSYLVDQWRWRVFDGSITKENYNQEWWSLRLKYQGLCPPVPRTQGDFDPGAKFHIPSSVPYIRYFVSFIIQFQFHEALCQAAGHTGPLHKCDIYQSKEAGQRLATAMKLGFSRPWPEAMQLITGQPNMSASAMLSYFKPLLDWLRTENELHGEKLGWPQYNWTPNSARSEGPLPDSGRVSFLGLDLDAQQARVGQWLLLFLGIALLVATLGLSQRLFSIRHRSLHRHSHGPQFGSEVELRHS

[15] = target: Neprilysin (Homo sapiens) (UniProt P08473); test: Inhibition of recombinant N-terminal 6His-tagged human neprilysin expressed in CHO cells at 300 uM using Mca-Arg-Pro-Pro-Gly-Phe-Ser-Ala-Phe-Lys(Dnp)-OH as substrate and measured by fluorescence based assay relative to control
Sequence of Neprilysin (Homo sapiens) (P08473 whole entry): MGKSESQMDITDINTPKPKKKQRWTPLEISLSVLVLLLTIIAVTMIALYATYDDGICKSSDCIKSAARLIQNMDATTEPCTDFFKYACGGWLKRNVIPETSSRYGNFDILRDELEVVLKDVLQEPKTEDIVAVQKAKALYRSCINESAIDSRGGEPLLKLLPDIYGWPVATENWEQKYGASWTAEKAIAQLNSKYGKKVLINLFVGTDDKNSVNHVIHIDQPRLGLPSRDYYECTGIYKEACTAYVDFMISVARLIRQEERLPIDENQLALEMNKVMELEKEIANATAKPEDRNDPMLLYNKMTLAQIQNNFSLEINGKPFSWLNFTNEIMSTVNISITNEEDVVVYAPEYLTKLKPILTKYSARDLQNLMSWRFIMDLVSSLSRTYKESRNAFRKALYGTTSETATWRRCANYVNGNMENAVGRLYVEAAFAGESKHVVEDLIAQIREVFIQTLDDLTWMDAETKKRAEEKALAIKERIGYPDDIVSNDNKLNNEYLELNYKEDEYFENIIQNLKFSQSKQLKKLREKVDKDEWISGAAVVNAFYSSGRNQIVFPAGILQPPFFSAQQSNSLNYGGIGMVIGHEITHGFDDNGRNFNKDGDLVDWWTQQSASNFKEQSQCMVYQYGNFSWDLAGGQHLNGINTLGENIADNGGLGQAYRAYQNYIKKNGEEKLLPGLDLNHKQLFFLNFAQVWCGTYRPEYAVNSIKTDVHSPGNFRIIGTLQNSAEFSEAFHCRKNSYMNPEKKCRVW

Rattus norvegicus [16] = species on record: Rattus norvegicus; test: Positive allosteric modulation of catalytic activity of recombinant N-terminal poly-His tagged rat neurolysin assessed as effect on fluorescence signal of Mca-Pro-Leu-OH and measured fluorescence assay
Rattus norvegicus [17] = species on record: Rattus norvegicus; test: Positive allosteric modulation of recombinant N-terminal poly-His tagged rat neurolysin at 100 uM assessed fold increase in formation of angiotensin (1 to 7) from angiotensin I and measured by mass spectrometry analysis; conditions: filed as positive allosteric modulator
Rattus norvegicus [18] = species on record: Rattus norvegicus; test: Positive allosteric modulation of recombinant N-terminal poly-His tagged rat neurolysin at 100 uM assessed fold increase in formation of bradykinin (1 to 5) from bradykinin and measured by mass spectrometry analysis; conditions: filed as positive allosteric modulator
Rattus norvegicus [19] = species on record: Rattus norvegicus; test: Positive allosteric modulation of recombinant N-terminal poly-His tagged rat neurolysin at 100 uM assessed fold increase in formation of neurotensin (1 to 10) from neurotensin and measured by mass spectrometry analysis; conditions: filed as positive allosteric modulator
[20] = filed as positive allosteric modulator

N[C@@H](Cc1c[nH]cn1)C(=O)N1CCCC1
Emax (Rattus norvegicus [1]; [20]): 173%

N[C@@H](Cc1c[nH]cn1)C(=O)N[C@@H](Cc1ccccc1)C(=O)NCCc1ccccc1 (H-His-Phe-NHPhenethyl)
A50 (Rattus norvegicus [2]; [20]): 5.4 µM
Emax (Rattus norvegicus [1]; [20]): 178%

N[C@@H](Cc1c[nH]cn1)C(=O)NCc1cccc(C(F)(F)F)c1
Emax (Rattus norvegicus [1]; [20]): 494%

N[C@@H](Cc1c[nH]cn1)C(=O)N[C@H](Cc1cc2ccccc2[nH]1)C(=O)O
Emax (Rattus norvegicus [1]; [20]): 440%

N[C@@H](Cc1c[nH]cn1)C(=O)NCc1ccc2ccccc2c1
A50 (Rattus norvegicus [2]; [20]): 12.3 µM
Emax (Rattus norvegicus [1]; [20]): 262%

CC[C@H](C)[C@H](NC(=O)[C@H](CCCNC(=N)N)NC(=O)[C@H](CCCNC(=N)N)NC(=O)[C@H](CC(C)C)NC(=O)[C@H](Cc1ccccc1)NC(=O)CNC(=O)CNC(=O)[C@@H](N)Cc1ccc(O)cc1)C(=O)N[C@@H](CCCNC(=N)N)C(=O)N1CCC[C@H]1C(=O)N[C@@H](CCCCN)C(=O)N[C@@H](CC(C)C)C(=O)N[C@@H](CCCCN)C(=O)O [ANALOG OF DYNORPHIN A]
Ki [3]: 700 nM
Ki [4]: 600 nM

N[C@H](Cc1c[nH]cn1)C(=O)NCCc1ccccc1
Emax (Rattus norvegicus [1]; [20]): 407%

COc1ccc(CCNC(=O)[C@@H](N)Cc2c[nH]cn2)cc1
Emax (Rattus norvegicus [1]; [20]): 544%

NC(Cc1c[nH]cn1)C(=O)NC(Cc1c[nH]cn1)C(=O)O (stereo not drawn)
Emax (Rattus norvegicus [5]): 203%
Emax (Rattus norvegicus [6]): 198%
Vmax (Rattus norvegicus [7]): 112 min⁻¹
Vmax (Rattus norvegicus [8]): 148 min⁻¹
Km (Rattus norvegicus [9]): 8 µM
Km (Rattus norvegicus [10]): 6.1 µM
Emax (Homo sapiens [11]): 214%
Emax (Mus musculus): 258%
inhibition (Homo sapiens [12]): 15.6%
inhibition [13]: 10.9%
inhibition [14]: 12.2%
inhibition [15]: 1.6%
Activity (Rattus norvegicus [16]): inactive

N[C@H](Cc1c[nH]cn1)C(=O)NCc1ccc(C(F)(F)F)cc1
Emax (Rattus norvegicus [1]; [20]): 599%

N[C@@H](Cc1c[nH]cn1)C(=O)NCCc1ccc(F)cc1
A50 (Rattus norvegicus [2]; [20]): 27.9 µM
Emax (Rattus norvegicus [1]; [20]): 323%

N[C@@H](Cc1c[nH]cn1)C(=O)NCc1cccc2ccccc12
Emax (Rattus norvegicus [1]; [20]): 264%

O=C1NC(Cc2c[nH]cn2)C(=O)N2CCCC12 (stereo not drawn)
A50 (Rattus norvegicus [2]): inactive
Emax (Rattus norvegicus [1]): inactive

COc1cccc(CNC(=O)[C@H](N)Cc2cnc[nH]2)c1
Emax (Rattus norvegicus [1]; [20]): 477%

COc1ccccc1CNC(=O)[C@H](N)Cc1c[nH]cn1
Emax (Rattus norvegicus [1]; [20]): 325%

O=C(CCc1cnc[nH]1)NCCc1c[nH]c2ccccc12
A50 (Rattus norvegicus [2]): inactive
Emax (Rattus norvegicus [1]): inactive

N[C@@H](Cc1c[nH]cn1)C(=O)Nc1ccccc1
A50 (Rattus norvegicus [2]; [20]): 7.74 µM
Emax (Rattus norvegicus [1]; [20]): 140%

NC(Cc1c[nH]cn1)C(=O)NCCc1cc2ccccc2[nH]1 (racemic)
Emax (Rattus norvegicus [1]; [20]): 311%

N[C@@H](Cc1c[nH]cn1)C(=O)NCCc1ccc2ccccc2c1
Emax (Rattus norvegicus [1]; [20]): 324%

N[C@H](Cc1c[nH]cn1)C(=O)NCCc1ccc(C(F)(F)F)cc1
Emax (Rattus norvegicus [1]; [20]): 643%

CC(C)(C)OC(=O)N[C@@H](Cc1c[nH]cn1)C(=O)NCCc1cc2ccccc2[nH]1
A50 (Rattus norvegicus [2]): inactive
Emax (Rattus norvegicus [1]): inactive

COc1ccc(CNC(=O)[C@@H](N)Cc2c[nH]cn2)cc1
Emax (Rattus norvegicus [1]; [20]): 429%

N[C@@H](Cc1c[nH]cn1)C(=O)NCc1ccccc1C(F)(F)F
Emax (Rattus norvegicus [1]; [20]): 334%

N[C@@H](Cc1c[nH]cn1)C(=O)NCc1ccc(C(F)(F)F)cc1
Emax (Rattus norvegicus [1]; [20]): 305%

COc1cccc(CCNC(=O)[C@H](N)Cc2c[nH]cn2)c1
Emax (Rattus norvegicus [1]; [20]): 255%

CC(C)(C)OC(=O)N[C@@H](Cc1c[nH]cn1)C(=O)NCCc1ccccc1
A50 (Rattus norvegicus [2]): inactive
Emax (Rattus norvegicus [1]): inactive

N[C@H](Cc1c[nH]cn1)C(=O)NCCc1ccccc1C(F)(F)F
Emax (Rattus norvegicus [1]; [20]): 396%

N[C@@H](Cc1c[nH]cn1)C(=O)NCc1ccccc1
Emax (Rattus norvegicus [1]; [20]): 152%

NC(Cc1c[nH]cn1)C(=O)NC(Cc1ccc(O)cc1)C(=O)O (stereo not drawn) (H-His-Tyr-OH; configuration not given here)
Emax (Rattus norvegicus [5]): 235%
Emax (Rattus norvegicus [6]): 238%
Vmax (Rattus norvegicus [7]): 124 min⁻¹
Vmax (Rattus norvegicus [8]): 165 min⁻¹
Km (Rattus norvegicus [9]): 7.9 µM
Km (Rattus norvegicus [10]): 6.4 µM
Emax (Homo sapiens [11]): 204%
Emax (Mus musculus): 190%
inhibition (Homo sapiens [12]): 25.9%
inhibition [13]: 13.4%
inhibition [14]: 22.6%
inhibition [15]: 2.9%
fold change (FC) (Rattus norvegicus [17]): 6
fold change (FC) (Rattus norvegicus [18]): 2
fold change (FC) (Rattus norvegicus [19]): 3
Activity (Rattus norvegicus [16]): inactive

N[C@H](Cc1c[nH]cn1)C(=O)NCCc1ccc2ccccc2c1
Emax (Rattus norvegicus [1]; [20]): 340%

N[C@H](Cc1cnc[nH]1)C(=O)NCc1cccc(C(F)(F)F)c1
Emax (Rattus norvegicus [1]; [20]): 184%

N[C@@H](Cc1c[nH]cn1)C(=O)NCCc1ccccc1
Emax (Rattus norvegicus [1]; [20]): 231%

N[C@@H](Cc1cnc[nH]1)C(=O)N[C@@H](Cc1ccccc1)C(=O)O (H-His-Phe-OH)
A50 (Rattus norvegicus [2]; [20]): 130 µM
Emax (Rattus norvegicus [1]; [20]): 573%

N[C@@H](Cc1c[nH]cn1)C(=O)NCCc1cc2ccccc2[nH]1
Emax (Rattus norvegicus [1]; [20]): 259%

CC(C)(C)OC(=O)N[C@@H](Cc1c[nH]cn1)C(=O)NCCc1c[nH]c2ccccc12
A50 (Rattus norvegicus [2]): inactive
Emax (Rattus norvegicus [1]): inactive

CC(C)(C)OC(=O)N[C@@H](Cc1c[nH]cn1)C(=O)N[C@@H](Cc1ccccc1)C(=O)O (Boc-His-Phe-OH)
A50 (Rattus norvegicus [2]): inactive
Emax (Rattus norvegicus [1]): inactive

N[C@H](Cc1c[nH]cn1)C(=O)NCCc1cc2ccccc2[nH]1
Emax (Rattus norvegicus [1]; [20]): 132%

N[C@@H](Cc1cnc[nH]1)C(=O)N[C@@H](Cc1ccc(O)cc1)C(=O)O (H-His-Tyr-OH)
Emax (Rattus norvegicus [1]; [20]): 467%

N[C@@H](Cc1ccccn1)C(=O)NCCc1ccccc1
A50 (Rattus norvegicus [2]): inactive
Emax (Rattus norvegicus [1]): inactive

COc1ccc(CNC(=O)[C@H](N)Cc2cnc[nH]2)cc1
Emax (Rattus norvegicus [1]; [20]): 704%

N[C@@H](Cc1c[nH]cn1)C(=O)NCCc1ccc(C(F)(F)F)cc1
Emax (Rattus norvegicus [1]; [20]): 438%

N[C@H](Cc1c[nH]cn1)C(=O)NCc1cccc2ccccc12
Emax (Rattus norvegicus [1]; [20]): 343%

N[C@@H](Cc1c[nH]cn1)C(=O)NCc1ccc(F)cc1
Emax (Rattus norvegicus [1]; [20]): 252%
